Source: paper PMC12489660, “Multitargeted Caffeic Acid Derivatives Inhibit Cardiac RyR2- and NaV1.5- Channels but Stimulate SERCA2a Pump Activity” (ACS Omega, 2025)
Values joined by “and” are separate entries in the source; they are usually repeats but may differ in a detail not shown here. Identical values can stand only once.

Legend:
HL-1 cells = assay: CytoTox-Glo Cytotoxicity Assay; format: cell-based; settings: 24 h, concentrations up to 1 μM
Experimental: Cell viability was assessed using CytoTox-Glo Cytotoxicity Assay according to the manufacturing procedure (Promega GmbH). Briefly, HL-1 cells were cultivated for 24 h in black-walled, clear-bottom 96-well microplates (Corning) covered with fibronectin/gelatin in DMEM, containing different concentrations of the tested compound (10,000 cells/well). Luminescence of a luminogenic peptide substrate was measured before and after addition of the lysis reagent (digitonin). The viable cell contribution was determined by a subtractive method. 0.1% DMSO treated cell were taken as a control.

[1] = PermeaPad membrane permeability; format: in vitro ADME; settings: not told, room temperature, class low/medium in parentheses, read-out: P e (permeability rate)
Description: We determined permeability rates (P e ), which are a measure of how fast a compound can cross a membrane, using cell-free transport models (PermeaPad, innoME GmbH) The CA derivatives have medium to low permeability rates in the range 1.0–24.0 nm/s (Table ). Similar to S36, despite poor permeability, compounds 2–4, 8, and 9 acted on live RyR2-HEK-293 R-CEPIA1er cells inhibiting RyR2. […] Since PermeaPad is an artificial model that primarily reflects passive diffusion, it is likely that additional mechanisms contribute to the crossing of cell membranes by these compounds.
Membrane permeability was assessed using PermeaPad Plate according to the manufacturing procedure (innoME GmbH, Espelkamp, Germany). Briefly, 200 μL (V A) water was added into acceptor plate. 200 μL (V D) of 100–500 μM test compound in water was added directly to the well membranes of the donor plate. The donor plate contains a biomimetic membrane for simulating passive mass transfer through different barriers in the body. Then the donor plate was placed into the acceptor plate wells and incubated at room temperature for 24 h in dark. To determine peak absorbance of test compounds, absorbance spectra of acceptor solutions and initial solutions for each test compound were read out. The Permeability Rate (P e) was calculated using the formula:
P e = C × −ln (1 – ODA/ODB) cm/s, where OD A is the absorbance of acceptor solution, OD B is the absorbance of the standard solution; if the compound is able to permeabilize the membrane and fully reach equilibrium, 250 μM will be the final concentration of solution in the donor and acceptor wells. The coefficient C was calculated using the formula: C=VD×VA/(VD+VA)×Area×time where V A–acceptor volume (cm^3), V D–donor volume (cm^3), membrane area 0.24 cm^2, time is 86,400 s.

wild type mouse RyR2 = target: T1, wild type mouse RyR2 (Mus musculus, UniProt E9Q401); assay: Time-lapse [Ca2+]ER assay in HEK-293 RyR2 R-CEPIA1er cells (RyR2 activity assay); format: cell-based; settings: 25 μM; for effect on RyR2 activity / [Ca2+]ER (in words): vs control 0.1 v/v% DMSO; for RyR2 activity: percentage from the control sample (100%), mean ± SEM;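 for all read-outs here: ER Ca2+ read as R-CEPIA1er fluorescence ratio F/F0 (F0 mean of initial 90 s, F mean of final 100 s), compared with vehicle-treated control wells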
T1 construct: expressed in transfected cells; host or cells: HEK-293 cells stably expressing WT RyR2 and R-CEPIA1er (gift of Dr. Takashi Murayama), induced with doxycycline

human NaV1.5 = human NaV1.5 (Homo sapiens, UniProt Q14524); assay: FLIPR membrane potential assay on CHO NaV1.5 Duo cells (veratridine-induced); format: cell-based; settings: for NaV1.5 activity in CHO cells: 10 μM, percentage from the control sample (100%), mean ± SEM; for effect on NaV1.5 activity (in words): concentration range 0.1 to 100 μM
SERCA2 = SERCA2 (Mus musculus, UniProt O55143); assay: Caffeine induced calcium release assay on live HL-1 cardiomyocytes; format: cell-based; settings: for activation of SERCA2 in HL-1: 10 μM, percentage from the control sample (100%), mean ± SEM; for EC50: 2 h preincubation, 10 mM caffeine, read-out: activation of SERCA2 in HL-1, EC50 (converted);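 for all read-outs here: Read-out: caffeine-evoked peak minus basal fluorescence (ΔF Caff) of cytoplasmic FLIPR Calcium 6 dye, recorded for 1 min, compared with Tyrode's solution plus 0.1 v/v% DMSO as control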
SERCA2a = target: T2, SERCA2a (Mus musculus, UniProt O55143); assay: NADH-coupled ATPase assay on microsomal membrane vesicles from mouse heart ventricles (mouse SER); format: biochemical; settings: for ATPase activity of SERCA2a in mouse SER / effect on SERCA2a ATPase activity (in words): 10 μM; for ATPase activity of SERCA2a in mouse SER: percentage from the control sample (100%), mean ± SEM; for EC50: kinetic rate of NADH–NAD+ conversion, Figure S10: 200 µM free Ca2+; for effect on SERCA2a ATPase activity (in words): mouse SER
T2 construct: from tissue; host or cells: adult mouse heart ventricles, microsomal membrane vesicles
Experimental: To this end, we tracked the rate of nicotinamide adenine dinucleotide (NADH) oxidation linked to ATP hydrolysis by observing changes in NADH fluorescence over time. This was done after addition of ATP to solutions containing microsomal membranes enriched with SER vesicles isolated from adult mouse heart ventricles (mouse SER). The NADH fluorescence decrease was recorded on a FlexStation 3 Multimode Microplate Reader. […] We detected the highest increase in ATPase activity (up to 118%), when the vesicles were treated with borate complex 11–13 (Table ). We tested compounds 11–13 in the NADH assay buffer to see whether these compounds could contribute to the rate of NADH fluorescence reduction (Figures S7–S9). No significant deviations were found in the rate of NADH consumption compared to the control sample (0.1 v/v% DMSO).
Isolation of Microsomal Membrane Vesicles from mouse hearts was done according to procedure described earlier. All animal procedures were performed in accordance with national and institutional regulations.
Mouse ventricular microsomes (4–5 μg of total protein) were diluted in 100 μL of the assay buffer used for measurement of SERCA activity (described below) and incubated at room temperature for 10 min prior to the experiments. The measurements of SERCA2 activity were made at 25 °C by using a NADH -coupled ATPase assay as described in Radnai et al. with slight modifications. Briefly, the assay buffer contained 60 mM MOPS, 120 mM KCl, 6 mM MgCl2, 1 mM EGTA, 5 mM NaN3, 0.5 mM phosphoenolpyruvate and 0.67 mM CaCl2, pH 7.0. Before the reaction was started by the injection of 10 μL ATP (resulting in 2 mM final concentration in the well), 5 units/mL of both lactate dehydrogenase and pyruvate kinase, 0.5 mM NADH, and 1 μM Ca^2+ ionophore A-23187 (Sigma, C-7522) were added to the diluted sample with or without the tested compound (volume −150 μL). […] The NADH fluorescence decrease was recorded each 2 s for 5 min course on a FlexStation 3 Multi-Mode Microplate Reader in 96-well glass bottom plates (MatTek Corporation; Cat. No. PBK96G-1.5-5-F). Fluorescence was evoked by 380 nm excitation wavelength and collected in a bottom-read mode at 425 nm, cutoff–470 nm, 4 flashes per read. ATP was injected at 60 s, speed–125 μL/s, pipet height–140 μL. The data were analyzed with computer software GraphPad Prism version 8.3.1 (GraphPad Software, Inc.). The difference in signal decrease with and without microsomes was taken as an indicator for the additional ATPase activity performed by SERCA2. The obtained values for maximal SERCA2 activity were normalized for total protein concentration. Maximal SERCA2 activity values are reported as percentages of control (0.1% DMSO) values. Microsomal samples that were kept on ice until usage and set to 100%.

[2] = set-up: method as in earlier work; settings: class low in parentheses; ref (number not given); cited from earlier work
SERCA2b = target: T3, SERCA2b (Homo sapiens, UniProt P16615); assay: NADH fluorescence-coupled ATPase assay on microsomal membranes isolated from HEK-293T cells; format: biochemical; settings: 10 µM, HEK-293T microsomal membranes
T3 construct: endogenous in cells; host or cells: HEK-293T cells, microsomal membranes
Description: HL-1 cells are known to express cardiac SERCA2a. […] HL-1 cells are in fact derived from mouse atrial cardiomyocytes that coexpress SERCA2a and SERCA2b. , We assumed that such behavior of compounds 1 and 5 is associated with their selective action on additional SERCA2 isoform present in these cells.

T1 sequence (E9Q401 whole entry): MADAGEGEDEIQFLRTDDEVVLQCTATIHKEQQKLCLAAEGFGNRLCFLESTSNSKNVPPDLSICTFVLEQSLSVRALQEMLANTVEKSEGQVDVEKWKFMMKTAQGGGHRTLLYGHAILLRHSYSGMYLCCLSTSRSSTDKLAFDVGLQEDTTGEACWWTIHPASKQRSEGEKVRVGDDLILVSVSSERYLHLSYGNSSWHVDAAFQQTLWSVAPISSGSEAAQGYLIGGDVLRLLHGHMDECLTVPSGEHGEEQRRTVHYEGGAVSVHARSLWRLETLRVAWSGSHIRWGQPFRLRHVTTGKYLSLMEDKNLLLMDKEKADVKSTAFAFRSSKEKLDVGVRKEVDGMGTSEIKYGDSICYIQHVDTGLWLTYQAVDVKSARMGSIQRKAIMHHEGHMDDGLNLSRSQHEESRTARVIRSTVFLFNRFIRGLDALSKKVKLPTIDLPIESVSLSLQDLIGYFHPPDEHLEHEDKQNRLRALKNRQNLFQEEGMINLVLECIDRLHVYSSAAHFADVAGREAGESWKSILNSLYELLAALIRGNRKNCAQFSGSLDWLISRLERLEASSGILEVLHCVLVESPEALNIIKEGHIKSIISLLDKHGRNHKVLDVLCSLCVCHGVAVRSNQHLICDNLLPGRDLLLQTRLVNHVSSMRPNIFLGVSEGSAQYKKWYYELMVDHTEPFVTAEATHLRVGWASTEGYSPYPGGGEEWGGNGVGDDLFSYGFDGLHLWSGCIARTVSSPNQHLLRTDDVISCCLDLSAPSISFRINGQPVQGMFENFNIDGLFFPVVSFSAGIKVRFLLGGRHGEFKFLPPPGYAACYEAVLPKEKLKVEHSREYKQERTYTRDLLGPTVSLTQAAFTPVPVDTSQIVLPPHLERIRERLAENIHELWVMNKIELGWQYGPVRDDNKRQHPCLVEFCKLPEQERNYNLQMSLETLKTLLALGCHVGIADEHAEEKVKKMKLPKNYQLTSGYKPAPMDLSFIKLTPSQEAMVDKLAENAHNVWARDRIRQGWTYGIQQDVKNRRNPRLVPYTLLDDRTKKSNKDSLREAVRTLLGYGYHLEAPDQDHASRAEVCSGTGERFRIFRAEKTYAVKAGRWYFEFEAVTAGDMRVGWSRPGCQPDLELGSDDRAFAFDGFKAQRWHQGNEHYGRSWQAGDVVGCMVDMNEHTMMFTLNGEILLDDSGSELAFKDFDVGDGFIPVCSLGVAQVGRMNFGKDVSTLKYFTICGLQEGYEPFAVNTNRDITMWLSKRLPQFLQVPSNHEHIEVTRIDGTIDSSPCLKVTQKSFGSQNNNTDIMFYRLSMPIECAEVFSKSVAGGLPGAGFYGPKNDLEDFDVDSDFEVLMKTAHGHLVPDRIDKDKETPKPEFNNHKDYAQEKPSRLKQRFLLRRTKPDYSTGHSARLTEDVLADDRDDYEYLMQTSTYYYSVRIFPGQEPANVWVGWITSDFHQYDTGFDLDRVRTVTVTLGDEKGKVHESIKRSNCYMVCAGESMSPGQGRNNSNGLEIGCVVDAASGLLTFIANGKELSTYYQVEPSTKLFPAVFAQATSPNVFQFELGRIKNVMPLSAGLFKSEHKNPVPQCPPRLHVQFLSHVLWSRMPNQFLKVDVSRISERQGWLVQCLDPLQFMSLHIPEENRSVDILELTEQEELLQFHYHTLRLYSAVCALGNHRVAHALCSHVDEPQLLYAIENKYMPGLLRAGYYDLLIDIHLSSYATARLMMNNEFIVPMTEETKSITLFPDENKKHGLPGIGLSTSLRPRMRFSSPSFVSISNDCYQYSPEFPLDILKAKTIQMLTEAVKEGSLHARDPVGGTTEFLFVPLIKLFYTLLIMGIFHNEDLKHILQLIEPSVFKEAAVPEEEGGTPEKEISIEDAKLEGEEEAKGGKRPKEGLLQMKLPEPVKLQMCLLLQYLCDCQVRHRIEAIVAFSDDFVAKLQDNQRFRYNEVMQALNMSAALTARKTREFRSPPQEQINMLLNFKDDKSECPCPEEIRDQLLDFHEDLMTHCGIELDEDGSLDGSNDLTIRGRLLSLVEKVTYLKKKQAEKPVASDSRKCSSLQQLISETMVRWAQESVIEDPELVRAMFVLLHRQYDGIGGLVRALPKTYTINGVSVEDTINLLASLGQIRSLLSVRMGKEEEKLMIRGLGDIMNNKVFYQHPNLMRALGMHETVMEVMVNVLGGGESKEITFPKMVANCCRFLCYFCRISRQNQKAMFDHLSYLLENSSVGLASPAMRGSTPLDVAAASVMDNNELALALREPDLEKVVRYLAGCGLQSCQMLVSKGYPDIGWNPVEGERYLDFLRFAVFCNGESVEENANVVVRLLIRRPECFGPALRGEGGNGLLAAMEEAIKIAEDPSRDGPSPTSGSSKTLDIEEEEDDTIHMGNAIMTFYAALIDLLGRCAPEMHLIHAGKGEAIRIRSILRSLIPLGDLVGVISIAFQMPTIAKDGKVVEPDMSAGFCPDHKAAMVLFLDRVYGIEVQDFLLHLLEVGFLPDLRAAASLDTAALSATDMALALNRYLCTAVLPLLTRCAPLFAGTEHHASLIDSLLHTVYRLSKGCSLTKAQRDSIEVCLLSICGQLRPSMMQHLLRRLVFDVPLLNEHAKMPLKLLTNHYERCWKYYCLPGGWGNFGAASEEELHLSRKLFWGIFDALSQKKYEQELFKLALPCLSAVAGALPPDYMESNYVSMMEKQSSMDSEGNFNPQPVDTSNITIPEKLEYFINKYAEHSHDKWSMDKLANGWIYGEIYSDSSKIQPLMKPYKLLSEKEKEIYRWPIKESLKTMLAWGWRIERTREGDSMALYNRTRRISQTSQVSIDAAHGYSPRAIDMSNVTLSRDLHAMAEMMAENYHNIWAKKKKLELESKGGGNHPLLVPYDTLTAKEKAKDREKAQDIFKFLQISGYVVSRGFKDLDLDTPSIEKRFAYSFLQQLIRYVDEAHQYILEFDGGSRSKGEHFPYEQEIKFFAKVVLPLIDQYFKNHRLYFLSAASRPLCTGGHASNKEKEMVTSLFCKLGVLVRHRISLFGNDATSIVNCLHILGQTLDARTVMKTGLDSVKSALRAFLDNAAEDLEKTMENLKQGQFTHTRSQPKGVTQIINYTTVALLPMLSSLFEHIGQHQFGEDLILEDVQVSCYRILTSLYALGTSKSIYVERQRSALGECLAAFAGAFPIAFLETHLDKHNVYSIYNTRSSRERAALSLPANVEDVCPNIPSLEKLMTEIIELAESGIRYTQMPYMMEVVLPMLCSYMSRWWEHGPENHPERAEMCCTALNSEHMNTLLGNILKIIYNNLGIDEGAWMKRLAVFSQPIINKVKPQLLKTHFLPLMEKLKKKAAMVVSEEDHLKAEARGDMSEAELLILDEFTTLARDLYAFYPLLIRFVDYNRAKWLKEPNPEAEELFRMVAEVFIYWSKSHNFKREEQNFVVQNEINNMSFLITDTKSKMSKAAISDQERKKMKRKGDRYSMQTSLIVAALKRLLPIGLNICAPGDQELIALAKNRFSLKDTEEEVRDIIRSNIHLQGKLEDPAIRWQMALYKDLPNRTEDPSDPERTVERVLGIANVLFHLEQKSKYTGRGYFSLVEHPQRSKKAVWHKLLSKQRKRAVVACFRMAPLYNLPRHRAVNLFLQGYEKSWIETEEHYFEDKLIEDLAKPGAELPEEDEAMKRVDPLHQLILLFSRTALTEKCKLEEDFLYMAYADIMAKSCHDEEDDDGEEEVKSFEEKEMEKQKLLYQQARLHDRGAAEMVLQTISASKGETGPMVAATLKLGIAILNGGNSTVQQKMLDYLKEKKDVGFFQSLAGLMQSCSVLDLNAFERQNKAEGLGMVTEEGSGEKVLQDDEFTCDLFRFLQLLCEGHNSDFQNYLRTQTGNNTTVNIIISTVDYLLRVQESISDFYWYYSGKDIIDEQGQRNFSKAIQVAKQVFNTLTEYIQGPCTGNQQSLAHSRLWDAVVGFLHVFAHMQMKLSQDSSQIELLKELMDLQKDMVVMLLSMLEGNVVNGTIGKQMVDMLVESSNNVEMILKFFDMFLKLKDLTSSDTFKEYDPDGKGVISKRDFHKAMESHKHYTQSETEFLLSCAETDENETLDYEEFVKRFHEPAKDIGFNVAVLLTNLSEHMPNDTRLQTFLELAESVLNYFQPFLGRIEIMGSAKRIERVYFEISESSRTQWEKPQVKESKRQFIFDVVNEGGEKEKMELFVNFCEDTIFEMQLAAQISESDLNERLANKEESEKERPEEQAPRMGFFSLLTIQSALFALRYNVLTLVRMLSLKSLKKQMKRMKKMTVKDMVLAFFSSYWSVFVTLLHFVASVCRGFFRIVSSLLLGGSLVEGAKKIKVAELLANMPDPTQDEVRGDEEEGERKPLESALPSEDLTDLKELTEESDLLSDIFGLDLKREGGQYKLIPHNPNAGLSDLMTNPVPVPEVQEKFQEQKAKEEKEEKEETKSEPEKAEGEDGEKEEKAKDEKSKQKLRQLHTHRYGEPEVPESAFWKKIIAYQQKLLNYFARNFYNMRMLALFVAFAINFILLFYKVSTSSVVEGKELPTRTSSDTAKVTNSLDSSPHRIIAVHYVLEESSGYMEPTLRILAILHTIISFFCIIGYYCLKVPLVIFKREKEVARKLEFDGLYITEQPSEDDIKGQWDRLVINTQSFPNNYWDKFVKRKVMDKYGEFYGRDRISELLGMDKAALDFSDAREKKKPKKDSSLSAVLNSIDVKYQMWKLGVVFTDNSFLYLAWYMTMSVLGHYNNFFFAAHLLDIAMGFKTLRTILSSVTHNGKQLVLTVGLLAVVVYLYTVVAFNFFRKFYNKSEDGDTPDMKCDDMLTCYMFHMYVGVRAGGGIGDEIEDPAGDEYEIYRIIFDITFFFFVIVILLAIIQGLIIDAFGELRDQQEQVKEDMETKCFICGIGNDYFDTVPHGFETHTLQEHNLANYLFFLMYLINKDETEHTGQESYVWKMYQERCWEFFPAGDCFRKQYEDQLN

Papp at 24 h [1]	effect on RyR2 activity / [Ca2+]ER (in words) (wild type mouse RyR2)	RyR2 activity (wild type mouse RyR2)	activation of SERCA2 in HL-1 (SERCA2)	EC50 (SERCA2; HL-1 cells)	stimulatory effect compared to the control (SERCA2; HL-1 cells, from 1 to 10 μM, bell-shaped dose response, decreased at higher doses)	ATPase activity of SERCA2a in mouse SER (SERCA2a)	EC50 (SERCA2a)	SMILES	viability of HL-1 cells (in words) (HL-1 cells)	NaV1.5 activity in CHO cells (human NaV1.5)	P e (permeability rate) [2]	effect on NaV1.5 activity (in words) (human NaV1.5)	effect on ATPase activity (in words) (SERCA2b)	effect on SERCA2a ATPase activity (in words) (SERCA2a)
0.1 ×10⁻⁶ cm/s	significantly increased [Ca^2+]ER	103.0 ± 0.4%	299.1 ± 12.8%	2.5 µM	up to 300%	115.5 ± 3.7%	0.023 µM and 0.0231 µM	COc1ccc2c(c1)CN(CCCCCCCC[NH+]([BH2-]C#N)C/C=C/c1ccc(O)c(O)c1)CCS2 (stereo not shown) [Compound 13]	remained unchanged	83.3 ± 0.9%				
	increase in R-CEPIA1er fluorescence	103.4 ± 0.7%						COc1ccc2c(c1)CN(C(=O)C(=O)O)CCS2 [Compound S36, reference compound]			1.0 (low, ref ) 10^–6 cm/s	no effect on NaV1.5 activity		

Second part, the compound before the results:

SMILES	Papp at 24 h [1]	effect on RyR2 activity / [Ca2+]ER (in words) (wild type mouse RyR2)	RyR2 activity (wild type mouse RyR2)	activation of SERCA2 in HL-1 (SERCA2)	EC50 (SERCA2; HL-1 cells)	stimulatory effect compared to the control (SERCA2; HL-1 cells, from 1 to 10 μM, bell-shaped dose response, decreased at higher doses)	ATPase activity of SERCA2a in mouse SER (SERCA2a)	EC50 (SERCA2a)	viability of HL-1 cells (in words) (HL-1 cells)	NaV1.5 activity in CHO cells (human NaV1.5)	P e (permeability rate) [2]	effect on NaV1.5 activity (in words) (human NaV1.5)	effect on ATPase activity (in words) (SERCA2b)	effect on SERCA2a ATPase activity (in words) (SERCA2a)
COc1ccc(OCCCNC(=O)/C=C/c2ccc(O)c(O)c2)cc1 [Compound 1, (E)-3-(3,4-Dihydroxyphenyl)-N-(3-(4-methoxyphenyloxy)propyl)acrylamide]	1.8 ×10⁻⁶ cm/s	did not affect the RyR2 activity	100.8 ± 1.3%	157.7 ± 7.1%	15 µM and 14.9 µM		98.2 ± 6.5%			91.8 ± 1.0%			significantly increased the ATPase activity	did not evoke a significant increase in ATPase activity
COc1ccc2c(c1)CN(CCCCCCCCNC/C=C/c1ccc(O)c(O)c1)CCS2 [Compound 9]	0.4 ×10⁻⁶ cm/s	significantly increased [Ca^2+]ER	105.7 ± 0.4%	164.0 ± 3.0%	10.9 µM		113.1 ± 2.1%	0.041 µM and 0.0412 µM	remained unchanged	106.0 ± 1.0%		no effect on NaV1.5		
COc1ccc2c(c1)CN(CCCCNC(=O)/C=C/c1ccc(O)c(O)c1)CCS2 [Compound 5]	0.9 ×10⁻⁶ cm/s	did not affect the RyR2 activity	100.5 ± 0.8%	190.6 ± 6.6%	9 µM and 9.1 µM		109.0 ± 4.0%			97.7 ± 1.9%			significantly increased the ATPase activity	did not evoke a significant increase in ATPase activity
COc1ccc2c(c1)CN(CCCCCCNC(=O)/C=C/c1ccc(O)c(O)c1)CCO2 [Compound 8]	1.1 ×10⁻⁶ cm/s	RyR2 activators	95.0 ± 1.2%	158.1 ± 2.4%	7.6 µM		110.5 ± 3.5%			96.6 ± 3.6%				
